Reference: paper PMC12664493, “Asparagine endopeptidase (AEP) inhibitor formulation via zein-based nanoparticle improves the therapeutic efficacy toward Alzheimer's disease” (Neurotherapeutics, 2025)
“And” between values parts separate entries of the source, which are not always exact repeats. Equal values may be shown once. Read-outs that look alike come from different tables or passages of the source.

Key:
[1] = system: 3xTg mice; assay: Y-maze test in 3xTg mice; assay type: in vivo, mouse; conditions: 7.5 mg/kg P.O. daily, one month
Excerpt: (§1) Blood and brain tissues were collected at 0, 0.08, 0.25, 0.5, 1, 2, 4, and 8 h post-administration. For acute pharmacodynamic (PD) assessments, male and female 3xTg mice received oral doses of NP-11a-isopropyl at 7.5 mg/kg or 15 mg/kg, and blood and brain samples were collected 2 h after treatment.
The Y-maze test was employed to evaluate spatial working memory and spontaneous alternation behavior, a measure of natural exploratory pattern integrity. The apparatus comprised three symmetrical opaque arms (A, B, C; 30 cm length × 8 cm width × 15 cm height) intersecting at 120° angles to form a Y-shaped configuration. Mice were habituated to the maze during a 5-min acclimatization period to minimize novelty-induced anxiety. Following habituation, spontaneous exploration was recorded for 8 min using an overhead camera, with all trials conducted under consistent low-light conditions to reduce environmental stress. EthoVision XT 12 software (Noldus, Wageningen, The Netherlands) quantified total arm entries, entry sequences, and alternation patterns (consecutive entries into three distinct arms without repetition). The maze was thoroughly cleaned with 70 % ethanol between trials to eliminate olfactory cues.

[2] = PAMPA-BBB permeability assay; assay type: in vitro ADME; conditions: read-out: Permeability-PAMPA-BBB Pe
[3] = biological target: T1, BCRP (Homo sapiens, UniProt Q9UNQ0); assay: Caco-2-BCRP assay with and without Ko143; assay type: in vitro ADME; conditions: for Papp A→B / Papp B→A / recovery: human
T1 construct: endogenous in cells; host or cells: Caco-2
T1 sequence (Q9UNQ0 1-655): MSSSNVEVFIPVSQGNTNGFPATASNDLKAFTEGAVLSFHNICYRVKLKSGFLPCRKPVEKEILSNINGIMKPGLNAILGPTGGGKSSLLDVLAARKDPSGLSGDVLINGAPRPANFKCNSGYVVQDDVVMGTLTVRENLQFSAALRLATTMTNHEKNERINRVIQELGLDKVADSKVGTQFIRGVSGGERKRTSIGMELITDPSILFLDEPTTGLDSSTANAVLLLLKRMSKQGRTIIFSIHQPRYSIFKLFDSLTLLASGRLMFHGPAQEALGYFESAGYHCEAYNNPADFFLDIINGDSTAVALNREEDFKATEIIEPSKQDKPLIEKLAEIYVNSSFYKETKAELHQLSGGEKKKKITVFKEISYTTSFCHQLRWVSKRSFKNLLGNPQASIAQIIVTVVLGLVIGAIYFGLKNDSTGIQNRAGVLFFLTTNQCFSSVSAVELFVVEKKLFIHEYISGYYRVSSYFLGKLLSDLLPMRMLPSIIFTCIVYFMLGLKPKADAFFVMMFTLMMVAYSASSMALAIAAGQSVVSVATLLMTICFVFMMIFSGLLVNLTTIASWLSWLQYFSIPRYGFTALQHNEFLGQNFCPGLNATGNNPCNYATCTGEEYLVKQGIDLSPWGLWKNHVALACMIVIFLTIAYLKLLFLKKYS

[4] = Stability in human hepatocytes; assay type: in vitro ADME
[5] = Stability in human plasma; assay type: in vitro ADME; conditions: read-out: Stability-Plasma T1/2
[6] = In vivo pharmacokinetics in CD-1 (ICR) mice, plasma and brain, LC-MS/MS; conditions: mouse
Excerpt: as §1

[7] = Plasma and brain concentrations after acute oral treatment of 3xTg mice; assay type: in vivo; conditions: both sexes, mouse
Excerpt: Blood and brain tissues were collected at 0, 0.08, 0.25, 0.5, 1, 2, 4, and 8 h post-administration.

[8] = Solubility (pH 7.4, PBS); assay type: physicochemical
[9] = Caco-2 permeability; assay type: in vitro ADME; conditions: human
[10] = biological target: hERG K+ channel (Homo sapiens, UniProt Q12809); assay: hERG inhibition assay
[11] = Stability in mouse liver microsomes; assay type: in vitro ADME; conditions: read-out: Stability-Microsomes T1/2
[12] = Stability in mouse plasma; assay type: in vitro ADME; conditions: read-out: Stability-Plasma T1/2
[13] = system: Aβ plaques; assay: Aβ PET (18F-AV45) in 3xTg mice after chronic treatment; assay type: in vivo, mouse; conditions: 7.5 mg/kg P.O. daily, one month
Excerpt: as §1
Mice were maintained under isoflurane inhalation anesthesia during all procedures to ensure stable physiological conditions for radiochemical administration, imaging, and data processing. PET imaging was conducted using a high-resolution small-animal scanner (microPET; spatial resolution: 1.0 mm). Following intravenous administration of 10–15 MBq of ^18F-florbetapir (AV45) in 100 μL saline via the tail vein, 20-min volumetric brain emission scans were acquired. Image reconstruction was performed using ordered-subset expectation maximization (OSEM) to optimize spatial resolution and signal-to-noise ratios. For quantitative analysis, standardized uptake value ratios (SUVRs) were calculated by normalizing 18F-AV45 uptake in target regions to the cerebellar reference tissue. A predefined volumetric region of interest (VOI) template was applied to ensure consistent anatomical localization across subjects. SUVR data were statistically analyzed using Amide 1.0.4–1 (San Diego, CA, USA), with results reported for cortical and subcortical regions implicated in amyloid pathology.

[14] = male, CD-1 (ICR), plasma, iv, I.V. 2 mg/kg
[15] = male, CD-1 (ICR), plasma, po, P.O. 5 mg/kg

Sequence of hERG K+ channel (Q12809 whole entry): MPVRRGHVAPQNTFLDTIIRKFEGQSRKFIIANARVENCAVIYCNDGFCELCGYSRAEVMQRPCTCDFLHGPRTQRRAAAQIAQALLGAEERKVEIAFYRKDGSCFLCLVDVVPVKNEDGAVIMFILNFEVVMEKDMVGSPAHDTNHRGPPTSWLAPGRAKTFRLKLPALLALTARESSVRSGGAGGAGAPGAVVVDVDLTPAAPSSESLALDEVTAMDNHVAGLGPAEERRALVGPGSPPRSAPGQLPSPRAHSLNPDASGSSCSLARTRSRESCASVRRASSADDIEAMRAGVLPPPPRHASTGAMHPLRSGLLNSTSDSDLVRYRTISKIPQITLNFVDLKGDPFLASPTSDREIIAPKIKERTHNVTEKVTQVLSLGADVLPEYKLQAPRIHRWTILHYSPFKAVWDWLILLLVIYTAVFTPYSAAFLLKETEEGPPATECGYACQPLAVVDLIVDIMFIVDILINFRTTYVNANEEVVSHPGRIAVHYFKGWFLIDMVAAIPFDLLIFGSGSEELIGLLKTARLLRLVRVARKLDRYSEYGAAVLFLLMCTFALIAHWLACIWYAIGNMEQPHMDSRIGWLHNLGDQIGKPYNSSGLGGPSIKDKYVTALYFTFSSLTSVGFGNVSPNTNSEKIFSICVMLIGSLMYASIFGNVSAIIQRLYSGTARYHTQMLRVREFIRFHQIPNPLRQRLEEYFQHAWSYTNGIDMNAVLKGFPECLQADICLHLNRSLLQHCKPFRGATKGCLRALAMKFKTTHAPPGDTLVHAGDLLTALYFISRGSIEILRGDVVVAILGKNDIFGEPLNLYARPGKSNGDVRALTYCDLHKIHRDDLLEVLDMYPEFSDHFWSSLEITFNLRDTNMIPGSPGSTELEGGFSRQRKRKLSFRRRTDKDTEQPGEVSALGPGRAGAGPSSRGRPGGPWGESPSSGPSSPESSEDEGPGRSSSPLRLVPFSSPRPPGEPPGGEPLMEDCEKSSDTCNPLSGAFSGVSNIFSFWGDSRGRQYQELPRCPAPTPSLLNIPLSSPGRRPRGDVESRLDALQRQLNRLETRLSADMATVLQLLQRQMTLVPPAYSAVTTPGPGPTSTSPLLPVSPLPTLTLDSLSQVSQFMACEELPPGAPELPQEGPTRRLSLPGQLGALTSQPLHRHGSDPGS

## CC(C)Nc1nnc(Nc2cc(CO)c(N3CCOCC3)c3nonc23)s1 [11a-isopropyl]
[1]
  Cognitive function in the Y maze: significantly improved
[2]
  Papp: 8.4 ×10⁻⁶ cm/s
[3]
  BCRP substrate classification: not a significant substrate of BCRP
[3]; Caco-2, with Ko143 2 μM
  Papp A→B: 15.7 ×10⁻⁶ cm/s
  Papp B→A: 35.7 ×10⁻⁶ cm/s
[3]; Caco-2, with Ko143 2 μM, Ko143 2 μM, read-out: Recovery (%) A→B
  recovery: 107%
[3]; Caco-2, with Ko143 2 μM, Ko143 2 μM, read-out: Recovery (%) B→A
  recovery: 98.5%
[3]; Caco-2, Ko143 0 μM
  Papp A→B: 12.1 ×10⁻⁶ cm/s
  Papp B→A: 35.7 ×10⁻⁶ cm/s
[3]; Caco-2, Ko143 0 μM, read-out: Recovery (%) A→B
  recovery: 91.8%
[3]; Caco-2, Ko143 0 μM, read-out: Recovery (%) B→A
  recovery: 104%
[4]
  hepatocyte CLint: 22 µL/min/1e6 cells
[4]; read-out: Stability-Hepatocytes T1/2
  half-life: 63.1 min
[5]
  half-life: > 480 min
[6]; male, CD-1 (ICR), brain, iv, I.V. 2 mg/kg, read-out: Brain MRT (0-t)
  MRT last: 143 min
[6]; male, CD-1 (ICR), brain, iv, I.V. 2 mg/kg, read-out: Brain Tmax
  Tmax: 4.8 min
[6]; male, CD-1 (ICR), brain, po, P.O. 5 mg/kg, read-out: Brain MRT (0-t)
  MRT last: 130 min
[6]; male, CD-1 (ICR), brain, po, P.O. 5 mg/kg, read-out: Brain Tmax
  Tmax: 11.6 min
[6]; male, CD-1 (ICR), brain, iv, 2 mg/kg, I.V. 2 mg/kg, read-out: Brain t1/2 (converted)
  half-life: ~120 min
[6]; male, CD-1 (ICR), brain, po, 5 mg/kg, P.O. 5 mg/kg, read-out: Brain t1/2 (converted)
  half-life: 144 min
[6]; male, CD-1 (ICR), plasma, iv, 2 mg/kg, I.V. 2 mg/kg, read-out: Plasma CLz (converted)
  clearance: 13.8 mL/min/kg
[6]; male, CD-1 (ICR), plasma, iv, 2 mg/kg, I.V. 2 mg/kg, read-out: Plasma t1/2 (converted)
  half-life: 53.4 min
[6]; male, CD-1 (ICR), plasma, oral, 5 mg/kg, P.O. 5 mg/kg vs I.V. 2 mg/kg, read-out: F* (%) oral bioavailability
  bioavailability: ~67.2%
[6]; male, CD-1 (ICR), plasma, po, 5 mg/kg, P.O. 5 mg/kg, read-out: Plasma t1/2 (converted)
  half-life: ~43.8 min
[6]; [14]
  AUC(0-t): 2410 ng·h/mL
  Cmax: 5160 ng/mL
[6]; male, CD-1 (ICR), plasma, iv, I.V. 2 mg/kg, read-out: Plasma MRT (0-t)
  MRT last: 33.4 min
[6]; male, CD-1 (ICR), plasma, iv, I.V. 2 mg/kg, read-out: Plasma Tmax
  Tmax: 4.8 min
[6]; [15]
  AUC(0-t): 4050 ng·h/mL
  Cmax: 4770 ng/mL
[6]; male, CD-1 (ICR), plasma, po, P.O. 5 mg/kg, read-out: Plasma MRT (0-t)
  MRT last: 50.9 min
[6]; male, CD-1 (ICR), plasma, po, P.O. 5 mg/kg, read-out: Plasma Tmax
  Tmax: 8.22 min
[6]; I.V. 2 mg/kg, 2 mg/kg
  Brain AUC (0-t): approximately 921.71 ng/mL·h
  Brain Cmax: 306.77 ng/mL
[6]; P.O. 5 mg/kg, 5 mg/kg
  Brain AUC (0-t): ~385.36 ng·h/mL and 385.358 ng·h/mL
  Brain Cmax: 321.25 ng/mL and 321.248 ng/mL
[7]; brain, 7.5 mg/kg, 11a-isopropyl level in the brain, P.O. 7.5 mg/kg
  concentration at 2 h: 14.4 ng/mL
[7]; brain, 7.5 mg/kg, P.O. 7.5 mg/kg, read-out: Concentration in brain, Brain Mean
  concentration at 2 h: 14.4 ng/g
[7]; brain, 7.5 mg/kg, P.O. 7.5 mg/kg, read-out: Concentration in brain, Brain Sample (single animal)
  concentration at 2 h: 14.4 ng/g
[7]; brain, 15 mg/kg, P.O. 15 mg/kg, read-out: Concentration in brain, Brain Sample (single animal)
  concentration at 2 h: 39.3 ng/g
[7]; plasma, 7.5 mg/kg, P.O. 7.5 mg/kg, read-out: Concentration in plasma, Serum Mean
  concentration at 2 h: 74.9 ng/mL
[8]; aqueous buffer, pH 7.4, read-out: Solubility (pH, media)
  solubility: 2450 µg/mL
[8]; pH 7.4, aqueous buffer, pH7.4, read-out: Solubility (pH, media)
  solubility: 6.25 mM
[9]; a-b, first value of the cell
  Papp A→B: 6.34 ×10⁻⁶ cm/s
[9]; value after the slash, head names only a-b, read-out: Permeability-Caco-2 Papp, second value of the cell (taken as b-a)
  Papp B→A: 23.6 ×10⁻⁶ cm/s
[10]
  IC50: > 10 µM
[11]
  half-life: > 27.7 min
[12]
  half-life: > 480 min
[13]
  Aβ PET (18F-AV45) SUVR: significantly decreasing the PET signals
